Numbered stars: 1 amine (or outer) side, 2 acyl side, 3 side chain; on linkers, the order of the positions; unused ones are H or OH. Bridge positions count the residues as written; N and C are the ends. Square brackets hold non-standard residues; d marks the D form. Peptide text beside a SMILES is read from it. * marks the point of attachment. ξ: configuration not given here. ξPro(4ξ-NHCOC6H4-4-Cl) = O=C(NC1CNC(C(=O)O)C1)c1ccc(Cl)cc1; Shikimoyl = O=C(C1=C[C@@H](O)[C@@H](O)[C@H](O)C1)*; 1,2,3Thiadiazole5CO(4-Me) = Cc1nnsc1C(=O)*; 2Thenoyl(5-Cl) = O=C(c1ccc(Cl)s1)*; Benzoyl(4-Cl) = O=C(c1ccc(Cl)cc1)*; Cysteamide = C(CS[*:3])N[*:1]; Isovaleryl = CC(C)CC(=O)*; X1 = O=C(/C=C/c1ccccc1)*; Api = NC1(C(=O)O)CCNCC1; Dap = NC[C@H](N)C(=O)O; Bz = O=C(c1ccccc1)*; Mpa = O=C(O)CCS
Molecular target: MDM2 (Homo sapiens, UniProt Q00987)
Experiment: MDM2 binding screen: displacement of fluorescent p53 peptide probe FP53 (fluorescence polarization)
Conditions: for fraction fluorescent probe displaced, Screen: initial screen; for fraction fluorescent probe displaced, Screen / fraction fluorescent probe displaced, Replicate: crude macrocycle reactions; for fraction fluorescent probe displaced: 10 µM macrocycle concentration, crude acylated macrocycle (scaffold Mpa-AA1-AA2-AA3 x carboxylic acid), p53-based fluorescent peptide, human MDM2
Method in brief: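 Single-point screen: one fluorescence anisotropy reading at 25 °C (485 nm excitation, 535 nm emission) per macrocycle. Crude macrocycle reactions, final 10 µM, were scored for displacing the fluorescent p53 peptide from human MDM2.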

Chain of MDM2 (Q00987 whole entry): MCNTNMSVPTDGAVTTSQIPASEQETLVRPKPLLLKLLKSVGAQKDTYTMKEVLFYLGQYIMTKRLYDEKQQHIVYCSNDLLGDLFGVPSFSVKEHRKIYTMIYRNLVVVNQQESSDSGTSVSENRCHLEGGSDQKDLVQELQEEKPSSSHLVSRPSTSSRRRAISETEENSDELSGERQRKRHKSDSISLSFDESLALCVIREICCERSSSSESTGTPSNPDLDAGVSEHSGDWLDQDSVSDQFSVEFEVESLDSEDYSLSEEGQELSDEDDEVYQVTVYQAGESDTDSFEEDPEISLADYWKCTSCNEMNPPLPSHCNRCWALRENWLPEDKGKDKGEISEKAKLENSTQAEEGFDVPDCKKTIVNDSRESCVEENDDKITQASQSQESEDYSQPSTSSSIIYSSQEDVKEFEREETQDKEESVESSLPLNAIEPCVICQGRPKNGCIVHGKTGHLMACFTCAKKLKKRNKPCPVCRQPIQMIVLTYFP

SMILES: O=C1CCNC(=O)C(Cc2ccccc2)NC(=O)C2CN(C(=O)c3ccc(Cl)cc3)CCN2C(=O)CCSSCCN1 (stereo not drawn) [X D7 F B2 Acid 25]
- fraction fluorescent probe displaced, Screen (Acid 25): -0.00813
- fraction fluorescent probe displaced, Replicate (Acid 25): 0.07

SMILES: O=C(NC[C@@H]1NC(=O)[C@@H]2CCCN2C(=O)CCSSCCNC(=O)[C@H](Cc2ccccc2)NC1=O)C1=C[C@@H](O)[C@@H](O)[C@H](O)C1 [X-B1-D3-F + A72] ([Mpa]P[Dap](Shikimoyl)F-Cysteamide; disulfide 1-C)
- fraction fluorescent probe displaced: 0.06911

SMILES: CC(C)CC(=O)NC[C@@H]1NC(=O)[C@@H]2CCCN2C(=O)CCSSCCNC(=O)[C@H](Cc2c[nH]c3ccccc23)NC1=O [X-B1-D3-W + A8] ([Mpa]P[Dap](Isovaleryl)W-Cysteamide; disulfide 1-C)
- fraction fluorescent probe displaced: 0.1324

SMILES: O=C1CCSSCCNC(=O)C2CN(C(=O)c3ccc(Cl)cc3)CCN2C(=O)C(Cc2c[nH]c3ccccc23)NC(=O)CCN1 (stereo not drawn) [X B2 W D7 Acid 25]
- fraction fluorescent probe displaced, Screen (Acid 25): 0.0569
- fraction fluorescent probe displaced, Replicate (Acid 25): 0.10

SMILES: O=C(NC1CC2C(=O)NC(Cc3c[nH]c4ccccc34)C(=O)N3CCCC(C3)C(=O)NCCSSCCC(=O)N2C1)c1ccc(Cl)cc1 (stereo not drawn) [X D5 W B4 Acid 25]
- fraction fluorescent probe displaced, Screen (Acid 25): 0.09
- fraction fluorescent probe displaced, Replicate (Acid 25): 0.15

SMILES: O=C(NC[C@@H]1NC(=O)[C@H](Cc2ccccc2)NC(=O)[C@@H]2CCCN2C(=O)CCSSCCNC1=O)c1ccc(Cl)cc1 [X B1 F D3 Acid 25] ([Mpa]PF[Dap](Benzoyl(4-Cl))-Cysteamide; disulfide 1-C)
- fraction fluorescent probe displaced, Screen (Acid 25): 0.09
- fraction fluorescent probe displaced, Replicate (Acid 25): 0.20

SMILES: O=C1CCSSCCNC(=O)[C@H](CNC(=O)c2ccc(Cl)cc2)NC(=O)[C@@H]2CCCN2C(=O)[C@H](Cc2c[nH]c3ccccc23)N1 [X W B1 D3 Acid 25] ([Mpa]WP[Dap](Benzoyl(4-Cl))-Cysteamide; disulfide 1-C)
- fraction fluorescent probe displaced, Screen (Acid 25): 0.28
- fraction fluorescent probe displaced, Replicate (Acid 25): 0.17

SMILES: O=C(NC1CC2C(=O)NC(Cc3c[nH]c4ccccc34)C(=O)N3CCCC3C(=O)NCCSSCCC(=O)N2C1)c1ccc(Cl)cc1 (stereo not drawn) [X D5 W B1 Acid 25] ([Mpa][ξPro(4ξ-NHCOC6H4-4-Cl)]WP-Cysteamide; disulfide 1-C; configuration not given here)
- fraction fluorescent probe displaced, Screen (Acid 25): 0.22
- fraction fluorescent probe displaced, Replicate (Acid 25): 0.10

SMILES: O=C1CCSSCCNC(=O)[C@H](Cc2ccccc2)NC(=O)[C@H](CNC(=O)c2ccc(Cl)cc2)NC(=O)CCN1 [X B2 D3 F Acid 25]
- fraction fluorescent probe displaced, Screen (Acid 25): 0.0244
- fraction fluorescent probe displaced, Replicate (Acid 25): -0.0552

SMILES: O=C(/C=C/c1ccccc1)NC[C@@H]1NC(=O)CCSSCCNC(=O)[C@H](Cc2ccccc2)NC(=O)[C@@H]2CCCN2C1=O [X D3 B1 F Acid 91] ([Mpa][Dap](X1)PF-Cysteamide; disulfide 1-C)
- fraction fluorescent probe displaced, Screen (Acid 91): 0.00268
- fraction fluorescent probe displaced, Replicate (Acid 91): -0.00827

SMILES: O=C1CCNC(=O)[C@H](Cc2ccccc2)NC(=O)C2(CCN(C(=O)/C=C/c3ccccc3)CC2)NC(=O)CCSSCCN1 [X D6 F B2 Acid 91]
- fraction fluorescent probe displaced, Screen (Acid 91): 0.14
- fraction fluorescent probe displaced, Replicate (Acid 91): 0.04

SMILES: O=C1CCSSCCNC(=O)C2CCCN(C2)C(=O)C2(CCN(C(=O)c3ccc(Cl)cc3)CC2)NC(=O)C(Cc2c[nH]c3ccccc23)N1 (stereo not drawn) [X W D6 B4 Acid 25]
- fraction fluorescent probe displaced, Screen (Acid 25): 0.28
- fraction fluorescent probe displaced, Replicate (Acid 25): 0.20

SMILES: O=C1CCSSCCNC(=O)c2cccc(c2)CNC(=O)C(Cc2c[nH]c3ccccc23)NC(=O)C2(CCN(C(=O)c3ccc(Cl)s3)CC2)N1 (stereo not drawn) [X D6 W B5 Acid 14]
- fraction fluorescent probe displaced, Screen (Acid 14): 0.11
- fraction fluorescent probe displaced, Replicate (Acid 14): 0.25

SMILES: Cc1nnsc1C(=O)NC[C@@H]1NC(=O)[C@@H]2CCCN2C(=O)CCSSCCNC(=O)[C@H](Cc2c[nH]c3ccccc23)NC1=O [X-B1-D3-W + A15] ([Mpa]P[Dap](1,2,3Thiadiazole5CO(4-Me))W-Cysteamide; disulfide 1-C)
- fraction fluorescent probe displaced: 0.02409

SMILES: O=C1CCSSCCNC(=O)[C@H](Cc2ccccc2)NC(=O)[C@H](CNC(=O)c2ccc(Cl)cc2)NC(=O)c2cccc(c2)CN1 [X B5 D3 F Acid 25]
- fraction fluorescent probe displaced, Screen (Acid 25): 0.0244
- fraction fluorescent probe displaced, Replicate (Acid 25): 0.10

SMILES: O=C(C=Cc1ccccc1)NCC1NC(=O)CCSSCCNC(=O)C(Cc2c[nH]c3ccccc23)NC(=O)CCNC1=O (stereo not drawn) [X D3 B2 W Acid 91]
- fraction fluorescent probe displaced, Screen (Acid 91): 0.11
- fraction fluorescent probe displaced, Replicate (Acid 91): -0.0333

SMILES: O=C1CCSSCCNC(=O)[C@H](CNC(=O)c2ccc(Cl)cc2)NC(=O)[C@H](Cc2c[nH]c3ccccc23)NC(=O)c2cccc(c2)CN1 [X B5 W D3 Acid 25]
- fraction fluorescent probe displaced, Screen (Acid 25): 0.15
- fraction fluorescent probe displaced, Replicate (Acid 25): 0.12

SMILES: O=C(NC[C@@H]1NC(=O)[C@@H]2CCCN2C(=O)CCSSCCNC(=O)[C@H](Cc2ccccc2)NC1=O)c1ccc(Cl)cc1 [X-B1-D3-F + A25] ([Mpa]P[Dap](Benzoyl(4-Cl))F-Cysteamide; disulfide 1-C)
- fraction fluorescent probe displaced: 0.2195

SMILES: O=C(NC1CC2C(=O)NCCSSCCC(=O)N3CCCC3C(=O)NC(Cc3c[nH]c4ccccc34)C(=O)N2C1)c1ccc(Cl)cc1 (stereo not drawn) [X B1 W D5 Acid 25] ([Mpa]PW[ξPro(4ξ-NHCOC6H4-4-Cl)]-Cysteamide; disulfide 1-C; configuration not given here)
- fraction fluorescent probe displaced, Screen (Acid 25): 0.15
- fraction fluorescent probe displaced, Replicate (Acid 25): 0.20

SMILES: O=C1CCSSCCNC(=O)C2(CCN(C(=O)c3ccc(Cl)s3)CC2)NC(=O)C(Cc2c[nH]c3ccccc23)NC(=O)c2cccc(c2)CN1 (stereo not drawn) [X B5 W D6 Acid 14]
- fraction fluorescent probe displaced, Screen (Acid 14): 0.20
- fraction fluorescent probe displaced, Replicate (Acid 14): 0.33

SMILES: O=C1CCSSCCNC(=O)[C@@H]2CCCN2C(=O)[C@H](Cc2ccccc2)NC(=O)C2(CCN(C(=O)c3ccc(Cl)s3)CC2)N1 [X D6 F B1 Acid 14] ([Mpa][Api](2Thenoyl(5-Cl))FP-Cysteamide; disulfide 1-C)
- fraction fluorescent probe displaced, Screen (Acid 14): 0.053
- fraction fluorescent probe displaced, Replicate (Acid 14): 0.07

SMILES: O=C(/C=C/c1ccccc1)NC[C@@H]1NC(=O)[C@@H]2CCCN2C(=O)[C@H](Cc2c[nH]c3ccccc23)NC(=O)CCSSCCNC1=O [X W B1 D3 Acid 91] ([Mpa]WP[Dap](X1)-Cysteamide; disulfide 1-C)
- fraction fluorescent probe displaced, Screen (Acid 91): 0.19
- fraction fluorescent probe displaced, Replicate (Acid 91): 0.12

SMILES: CC(C)=CCCC(C)CC(=O)NCC1NC(=O)C2CCCN2C(=O)CCSSCCNC(=O)C(Cc2c[nH]c3ccccc23)NC1=O (mixture of isomers) [X-B1-D3-W + A84]
- fraction fluorescent probe displaced: 0.05085

SMILES: CC(=O)NC[C@@H]1NC(=O)[C@@H]2CCCN2C(=O)CCSSCCNC(=O)[C@H](Cc2ccccc2)NC1=O [X-B1-D3-F + A7] ([Mpa]P[Dap](Ac)F-Cysteamide; disulfide 1-C)
- fraction fluorescent probe displaced: 0.02548

SMILES: O=C1CCSSCCNC(=O)[C@H](Cc2c[nH]c3ccccc23)NC(=O)[C@@H]2CCCN2C(=O)[C@H](CNC(=O)c2ccc(Cl)cc2)N1 [X D3 B1 W Acid 25] ([Mpa][Dap](Benzoyl(4-Cl))PW-Cysteamide; disulfide 1-C)
- fraction fluorescent probe displaced, Screen (Acid 25): 0.28
- fraction fluorescent probe displaced, Replicate (Acid 25): 0.15

SMILES: O=C(NC1CC2C(=O)N3CCCC(C3)C(=O)NC(Cc3ccccc3)C(=O)NCCSSCCC(=O)N2C1)c1ccc(Cl)s1 (stereo not drawn) [X D5 B4 F Acid 14]
- fraction fluorescent probe displaced, Screen (Acid 14): -0.06
- fraction fluorescent probe displaced, Replicate (Acid 14): 0.0211

SMILES: O=C(/C=C/c1ccccc1)NC[C@@H]1NC(=O)CCSSCCNC(=O)[C@H](Cc2ccccc2)NC(=O)c2cccc(c2)CNC1=O [X D3 B5 F Acid 91]
- fraction fluorescent probe displaced, Screen (Acid 91): -0.18
- fraction fluorescent probe displaced, Replicate (Acid 91): -0.0333

SMILES: O=C(NC[C@@H]1NC(=O)[C@@H]2CCCN2C(=O)CCSSCCNC(=O)[C@H](Cc2ccccc2)NC1=O)c1ccccc1 [X-B1-D3-F + A1] ([Mpa]P[Dap](Bz)F-Cysteamide; disulfide 1-C)
- fraction fluorescent probe displaced: -0.005048

SMILES: O=C(NC[C@@H]1NC(=O)[C@@H]2CCCN2C(=O)CCSSCCNC(=O)[C@H](Cc2ccccc2)NC1=O)c1ccc(Cl)cc1 [X B1 D3 F Acid 25] ([Mpa]P[Dap](Benzoyl(4-Cl))F-Cysteamide; disulfide 1-C)
- fraction fluorescent probe displaced, Screen (Acid 25): 0.22
- fraction fluorescent probe displaced, Replicate (Acid 25): 0.22

SMILES: O=C1CCSSCCNC(=O)[C@H](Cc2ccccc2)NC(=O)[C@@H]2C[C@H](NC(=O)c3ccc(Cl)s3)CN2C(=O)CCN1 [X B2 D5 F Acid 14]
- fraction fluorescent probe displaced, Screen (Acid 14): 0.16
- fraction fluorescent probe displaced, Replicate (Acid 14): 0.05

SMILES: O=C1CCNC(=O)C2CN(C(=O)c3ccc(Cl)cc3)CCN2C(=O)C(Cc2ccccc2)NC(=O)CCSSCCN1 (stereo not drawn) [X F D7 B2 Acid 25]
- fraction fluorescent probe displaced, Screen (Acid 25): -0.07
- fraction fluorescent probe displaced, Replicate (Acid 25): 0.10

SMILES: O=C1CCSSCCNC(=O)[C@H](Cc2c[nH]c3ccccc23)NC(=O)c2cccc(c2)CNC(=O)[C@H](CNC(=O)c2ccc(Cl)s2)N1 [X D3 B5 W Acid 14]
- fraction fluorescent probe displaced, Screen (Acid 14): 0.14
- fraction fluorescent probe displaced, Replicate (Acid 14): 0.20

SMILES: O=C1CCSSCCNC(=O)C(Cc2c[nH]c3ccccc23)NC(=O)C2CC(NC(=O)c3ccc(Cl)s3)CN2C(=O)CCN1 (stereo not drawn) [X B2 D5 W Acid 14]
- fraction fluorescent probe displaced, Screen (Acid 14): 0.11
- fraction fluorescent probe displaced, Replicate (Acid 14): 0.17

SMILES: O=C1CCSSCCNC(=O)[C@@H]2CCCN2C(=O)C2(CCN(C(=O)c3ccc(Cl)s3)CC2)NC(=O)[C@H](Cc2c[nH]c3ccccc23)N1 [X W D6 B1 Acid 14] ([Mpa]W[Api](2Thenoyl(5-Cl))P-Cysteamide; disulfide 1-C)
- fraction fluorescent probe displaced, Screen (Acid 14): 0.14
- fraction fluorescent probe displaced, Replicate (Acid 14): 0.17

SMILES: O=C1CCNC(=O)C2CN(C(=O)c3ccc(Cl)cc3)CCN2C(=O)CCSSCCNC(=O)C(Cc2ccccc2)N1 (mixture of isomers) [X D7 B2 F Acid 25]
- fraction fluorescent probe displaced, Screen (Acid 25): -0.04
- fraction fluorescent probe displaced, Replicate (Acid 25): 0.07
